IC50 data for 13 molecules are collected here from US10308639B2, “Phosphatidylinositol 3-kinase inhibitors” (Gilead Sciences, Inc., priority 2014, dated 2019).

Holding throughout (type): biochemical
One assay has as its target T1, PI3Kδ (Homo sapiens, UniProt O00329).
T1 construct: made in house
As to the kind of experiment: TR-FRET enzymatic activity assay, PI3Kδ. (In general: TR-FRET usually uses a lanthanide donor and a delayed reading to cut background.)

Another assay deals with T2, PI3Kγ (Homo sapiens, UniProt P48736).
T2 construct: made in house
As to the kind of experiment: TR-FRET enzymatic activity assay, PI3Kγ. The settings on record: read-out: PI3Kγ IC50. The procedure, abridged:
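Each PI3K isoform is tested in an enzymatic format. Signal comes from time-resolved fluorescence energy transfer.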

The target of another assay is T3, PI3Kβ (Homo sapiens, UniProt P42338).
T3 construct: made in house
In words: TR-FRET enzymatic activity assay, PI3Kβ.

Where [1] appears, read: Table 2, TR-FRET, 2x Km ATP, 30 minutes at 25° C.

pIC50: −log10 of the molar value. Like-named read-outs stand apart in the source and are kept apart here.

T1 sequence (O00329 whole entry): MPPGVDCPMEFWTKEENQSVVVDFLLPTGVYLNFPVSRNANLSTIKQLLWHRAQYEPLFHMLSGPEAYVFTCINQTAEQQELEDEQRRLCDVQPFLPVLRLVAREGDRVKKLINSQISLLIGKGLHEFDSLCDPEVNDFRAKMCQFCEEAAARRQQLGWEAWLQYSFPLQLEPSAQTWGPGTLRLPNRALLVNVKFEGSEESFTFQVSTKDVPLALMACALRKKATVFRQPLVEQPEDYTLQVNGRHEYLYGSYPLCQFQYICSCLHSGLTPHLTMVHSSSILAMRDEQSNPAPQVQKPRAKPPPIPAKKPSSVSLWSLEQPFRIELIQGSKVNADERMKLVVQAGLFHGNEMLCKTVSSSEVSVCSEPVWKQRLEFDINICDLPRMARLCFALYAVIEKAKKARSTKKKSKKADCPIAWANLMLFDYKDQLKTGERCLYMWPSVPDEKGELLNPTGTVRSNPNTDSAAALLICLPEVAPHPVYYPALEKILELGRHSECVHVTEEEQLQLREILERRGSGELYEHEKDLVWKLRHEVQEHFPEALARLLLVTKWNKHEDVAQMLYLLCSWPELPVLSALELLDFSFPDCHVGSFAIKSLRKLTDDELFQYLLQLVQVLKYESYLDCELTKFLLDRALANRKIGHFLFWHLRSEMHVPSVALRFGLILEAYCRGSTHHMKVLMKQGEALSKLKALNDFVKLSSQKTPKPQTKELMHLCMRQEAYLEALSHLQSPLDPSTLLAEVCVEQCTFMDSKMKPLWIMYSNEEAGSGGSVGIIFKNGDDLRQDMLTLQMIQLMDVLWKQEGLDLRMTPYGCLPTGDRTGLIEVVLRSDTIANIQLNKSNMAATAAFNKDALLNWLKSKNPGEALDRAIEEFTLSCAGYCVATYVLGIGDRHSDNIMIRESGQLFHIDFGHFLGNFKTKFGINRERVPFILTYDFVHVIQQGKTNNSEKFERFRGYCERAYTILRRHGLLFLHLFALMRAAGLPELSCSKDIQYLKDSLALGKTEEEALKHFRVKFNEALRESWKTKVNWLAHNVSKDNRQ
T1 sequence (P27986 whole entry partner): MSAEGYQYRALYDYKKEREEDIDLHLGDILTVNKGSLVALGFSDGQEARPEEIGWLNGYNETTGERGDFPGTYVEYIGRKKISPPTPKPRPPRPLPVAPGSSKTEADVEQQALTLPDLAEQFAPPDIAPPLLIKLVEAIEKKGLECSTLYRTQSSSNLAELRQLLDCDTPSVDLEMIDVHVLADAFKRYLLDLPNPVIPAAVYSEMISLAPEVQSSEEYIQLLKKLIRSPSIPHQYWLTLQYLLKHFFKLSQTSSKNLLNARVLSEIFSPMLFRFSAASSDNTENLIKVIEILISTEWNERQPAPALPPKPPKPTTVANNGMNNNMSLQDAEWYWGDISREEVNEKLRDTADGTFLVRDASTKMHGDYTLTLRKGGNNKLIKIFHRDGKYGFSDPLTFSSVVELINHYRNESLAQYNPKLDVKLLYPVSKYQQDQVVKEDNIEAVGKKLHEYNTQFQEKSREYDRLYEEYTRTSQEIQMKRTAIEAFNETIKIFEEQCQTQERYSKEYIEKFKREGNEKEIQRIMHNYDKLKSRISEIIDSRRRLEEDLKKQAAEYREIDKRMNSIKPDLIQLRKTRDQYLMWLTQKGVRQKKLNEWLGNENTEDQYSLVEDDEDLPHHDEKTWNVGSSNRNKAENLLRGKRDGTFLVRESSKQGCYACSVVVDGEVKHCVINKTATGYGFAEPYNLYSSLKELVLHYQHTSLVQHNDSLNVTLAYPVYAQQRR
T2 sequence (P48736 whole entry): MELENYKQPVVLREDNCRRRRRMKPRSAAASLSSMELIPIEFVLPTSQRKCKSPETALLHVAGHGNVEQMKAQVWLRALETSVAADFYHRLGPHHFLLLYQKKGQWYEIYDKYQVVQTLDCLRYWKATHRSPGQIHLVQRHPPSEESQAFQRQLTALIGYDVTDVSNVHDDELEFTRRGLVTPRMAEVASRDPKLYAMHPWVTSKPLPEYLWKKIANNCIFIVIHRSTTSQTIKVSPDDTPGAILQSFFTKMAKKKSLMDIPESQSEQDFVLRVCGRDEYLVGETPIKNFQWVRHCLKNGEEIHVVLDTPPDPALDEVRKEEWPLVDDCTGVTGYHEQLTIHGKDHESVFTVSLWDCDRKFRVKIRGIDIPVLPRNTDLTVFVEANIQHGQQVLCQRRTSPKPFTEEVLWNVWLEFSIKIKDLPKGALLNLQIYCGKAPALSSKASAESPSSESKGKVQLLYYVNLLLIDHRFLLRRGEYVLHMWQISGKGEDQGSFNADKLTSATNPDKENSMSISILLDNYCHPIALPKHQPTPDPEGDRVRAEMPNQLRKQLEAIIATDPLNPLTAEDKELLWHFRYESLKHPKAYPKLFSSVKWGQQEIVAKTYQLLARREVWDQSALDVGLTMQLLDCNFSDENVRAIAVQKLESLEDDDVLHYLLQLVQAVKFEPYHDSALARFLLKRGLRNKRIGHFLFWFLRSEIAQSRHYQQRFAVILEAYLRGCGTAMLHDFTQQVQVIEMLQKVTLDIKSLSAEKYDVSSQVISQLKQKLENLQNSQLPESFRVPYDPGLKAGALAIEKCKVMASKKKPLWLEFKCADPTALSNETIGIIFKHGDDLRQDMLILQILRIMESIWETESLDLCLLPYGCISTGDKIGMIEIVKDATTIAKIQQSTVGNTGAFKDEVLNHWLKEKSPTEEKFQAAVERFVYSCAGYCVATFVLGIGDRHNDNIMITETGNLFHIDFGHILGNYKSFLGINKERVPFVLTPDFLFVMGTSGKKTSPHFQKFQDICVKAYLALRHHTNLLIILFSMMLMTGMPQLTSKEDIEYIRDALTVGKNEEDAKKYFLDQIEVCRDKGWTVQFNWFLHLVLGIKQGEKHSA
T3 sequence (P42338 whole entry): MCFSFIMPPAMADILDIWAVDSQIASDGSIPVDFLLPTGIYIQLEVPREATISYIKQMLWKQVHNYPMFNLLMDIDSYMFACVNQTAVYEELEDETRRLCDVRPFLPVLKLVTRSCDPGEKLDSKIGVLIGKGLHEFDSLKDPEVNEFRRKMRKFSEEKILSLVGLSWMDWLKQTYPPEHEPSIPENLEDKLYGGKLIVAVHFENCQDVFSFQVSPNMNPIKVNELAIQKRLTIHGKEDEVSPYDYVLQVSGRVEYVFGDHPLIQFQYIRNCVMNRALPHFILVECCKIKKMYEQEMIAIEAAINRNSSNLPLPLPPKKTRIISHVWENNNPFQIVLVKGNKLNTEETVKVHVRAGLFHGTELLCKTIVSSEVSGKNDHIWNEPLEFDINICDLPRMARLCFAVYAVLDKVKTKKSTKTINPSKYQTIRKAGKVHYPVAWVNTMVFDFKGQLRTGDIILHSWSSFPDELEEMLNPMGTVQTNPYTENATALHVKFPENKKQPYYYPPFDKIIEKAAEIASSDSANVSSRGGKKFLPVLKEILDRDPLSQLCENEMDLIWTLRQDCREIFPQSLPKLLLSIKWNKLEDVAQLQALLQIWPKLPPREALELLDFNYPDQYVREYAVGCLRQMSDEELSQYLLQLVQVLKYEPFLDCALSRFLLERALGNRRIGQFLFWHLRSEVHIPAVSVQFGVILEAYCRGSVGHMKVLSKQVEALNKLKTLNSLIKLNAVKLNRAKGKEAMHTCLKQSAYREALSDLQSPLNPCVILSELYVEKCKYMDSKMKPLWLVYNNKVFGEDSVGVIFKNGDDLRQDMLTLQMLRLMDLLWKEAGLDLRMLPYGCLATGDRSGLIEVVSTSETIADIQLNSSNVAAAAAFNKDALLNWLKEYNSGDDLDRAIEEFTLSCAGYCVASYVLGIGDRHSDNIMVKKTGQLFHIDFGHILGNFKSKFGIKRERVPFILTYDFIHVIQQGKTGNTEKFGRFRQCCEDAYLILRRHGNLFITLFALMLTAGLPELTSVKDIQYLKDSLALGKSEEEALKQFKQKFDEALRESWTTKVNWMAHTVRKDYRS
T3 sequence (P27986 whole entry partner): as the sequence (P27986 whole entry partner) above

Broadly, the pIC50 is the negative decadic logarithm of the IC50, by convention in mol/L. For the molecule `CCC[C@H](Nc1nc(N)nc(N)c1Cl)c1nc2cccc(Cl)c2c(=O)n1-c1cc[nH]n1` [Compound 124, (S)-5-chloro-2-(1-((2,6-diamino-5-chloropyrimidin-4-yl)amino)butyl)-3-(1H-pyrazol-3-yl)quinazolin-4(3h)-one], the pIC50 was 7.92 against PI3Kδ (setting [1]), 5.17 at PI3Kγ (setting [1]) and 7.85 at PI3Kβ (setting [1]).
Turning to `C[C@H](Nc1nc(N)nc(N)c1Cl)c1nc2cc(F)cc(F)c2c(=O)n1-c1cc[nH]n1` [Compound 236, (S)-2-(1-((2,6-diamino-5-chloropyrimidin-4-yl)amino)ethyl)-5,7-difluoro-3-(1H-pyrazol-3-yl)quinazolin-4(3H)-one], the pIC50 was 6.92 against PI3Kδ (Table 2a, same assay); less than 5.00 on PI3Kγ (Table 2a, same assay); 6.92 against PI3Kβ (Table 2a, same assay).
As for `C[C@H](Nc1nc(N)nc(N)c1Cl)c1nc2cccc(Cl)c2c(=O)n1-c1cc(N)[nH]n1` [Compound 199, (S)-3-(5-amino-1H-pyrazol-3-yl)-5-chloro-2-(1-((2,6-diamino-5-chloropyrimidin-4-yl)amino)ethyl)quinazolin-4(3H)-one], the negative logarithm of the IC50 (pIC50) at PI3Kδ (Table 2a, same assay) is 7.80; at PI3Kγ (Table 2a, same assay), 5.27; on PI3Kβ (Table 2a, same assay) it was 8.15.
The corresponding values for `C[C@H](Nc1nc(N)nc(N)c1Cl)c1nc2cccc(Cl)c2c(=O)n1-c1cc(F)[nH]n1` [Compound 155, (S)-5-chloro-2-(1-((2,6-diamino-5-chloropyrimidin-4-yl)amino)ethyl)-3-(5-fluoro-1H-pyrazol-3-yl)quinazolin-4(3H)-one] are 8.00, 6.30 and 7.37.
`C[C@H](Nc1ncnc2scnc12)c1nc2cccc(Cl)c2c(=O)n1-c1n[nH]cc1Br` [Compound 104, (S)-3-(4-bromo-1H-pyrazol-3-yl)-5-chloro-2-(1-(thiazolo[5,4-d]pyrimidin-7-ylamino)ethyl)quinazolin-4(3H)-one]: the negative logarithm of the IC50 (pIC50) against PI3Kδ (setting [1]) is 8.70; on PI3Kγ (setting [1]), 6.30; against PI3Kβ (setting [1]), 7.21.
In the case of `N#Cc1c(C(F)F)nc(N)nc1N1CCC[C@H]1c1nc2cccc(Cl)c2c(=O)n1-c1cc[nH]n1` [Compound 189, (S)-2-amino-4-(2-(5-chloro-4-oxo-3-(1H-pyrazol-3-yl)-3,4-dihydroquinazolin-2-yl)pyrrolidin-1-yl)-6-(difluoromethyl)pyrimidine-5-carbonitrile], the negative-log IC50 (pIC50) was 6.89 at PI3Kδ (Table 2a, same assay); less than 5.00 at PI3Kγ (Table 2a, same assay); 5.70 at PI3Kβ (Table 2a, same assay).
Taken in the same sequence, the figures for `C[C@H](Nc1nc(N)nc(N)c1C#N)c1nc2c(F)c(F)ccc2c(=O)n1-c1cc[nH]n1` [Compound 231, (S)-2,4-diamino-6-((1-(7,8-difluoro-4-oxo-3-(1H-pyrazol-3-yl)-3,4-dihydroquinazolin-2-yl)ethyl)amino)pyrimidine-5-carbonitrile] were 7.92, 5.21 and 7.89.
Taken in the same sequence, the figures for `N#Cc1c(N)nc(N)nc1N[C@H](c1nc2c(Cl)cc(F)cc2c(=O)n1-c1c[nH]cn1)C1CC1` [Compound 281, (S)-2,4-diamino-6-(((8-chloro-6-fluoro-3-(1H-imidazol-4-yl)-4-oxo-3,4-dihydroquinazolin-2-yl)(cyclopropyl)methyl)amino)pyrimidine-5-carbonitrile] were 9.00, 6.21 and 8.70.
Taken in the same sequence, the figures for `C[C@H](Nc1nc(N)nc(N)c1C#N)c1nc2c(Cl)ccc(Cl)c2c(=O)n1-c1c[nH]cn1` [Compound 286, (S)-2,4-diamino-6-((1-(5,8-dichloro-3-(1H-imidazol-4-yl)-4-oxo-3,4-dihydroquinazolin-2-yl)ethyl)amino)pyrimidine-5-carbonitrile] were 9.52, 6.64 and 9.10.
As to `C[C@H](NC(=O)c1nccnc1N)c1nc2cccc(Cl)c2c(=O)n1-c1cc[nH]n1` [Compound 121, (S)-3-amino-N-(1-(5-chloro-4-oxo-3-(1H-pyrazol-3-yl)-3,4-dihydroquinazolin-2-yl)ethyl)pyrazine-2-carboxamide], the figures for the pIC50 at PI3Kδ (setting [1]), on PI3Kγ (setting [1]) and at PI3Kβ (setting [1]) were 7.70, 6.05 and 7.10, respectively.
For the molecule `C[C@H](Nc1nc(N)nc(N)c1Cl)c1nc2cccc(C(F)F)c2c(=O)n1-c1cn[nH]c1` [Compound 213, (S)-2-(1-((2,6-diamino-5-chloropyrimidin-4-yl)amino)ethyl)-5-(difluoromethyl)-3-(1H-pyrazol-4-yl)quinazolin-4(3H)-one], the negative logarithm of the IC50 (pIC50) at PI3Kδ (Table 2a, same assay) is 8.30; at PI3Kγ (Table 2a, same assay) it was 6.28; on PI3Kβ (Table 2a, same assay), 7.44.
Taken in the same sequence, the figures for `Nc1nc(N)c(Cl)c(N[C@H](c2nc3cccc(Cl)c3c(=O)n2-c2c[nH]cn2)C2CC2)n1` [Compound 287, (S)-5-chloro-2-(cyclopropyl((2,6-diamino-5-chloropyrimidin-4-yl)amino)methyl)-3-(1H-imidazol-4-yl)quinazolin-4(3H)-one] were 8.10, 5.52 and 7.28.
Taken in the same sequence, the figures for `C[C@H](Nc1ncnn2ccnc12)c1nc2cccc(Cl)c2c(=O)n1-c1ccc[nH]1` [Compound 291, (S)-5-chloro-2-(1-(imidazo[2,1-f][1,2,4]triazin-4-ylamino)ethyl)-3-(1H-pyrrol-2-yl)quinazolin-4(3H)-one] were 9.00, 6.77 and 6.85.
